The values that follow are results of earlier work, collected in patent US20150208691A1, “NOVEL USE OF ALKOXYLATES OF MONO- AND POLYVALENT ALCOHOLS” (AB AGRI LIMITED, priority 2012, published 2015).

Read-outs that look alike come from different tables or passages of the source.

In data set [1] the test system is methane emissions. The conditions noted are these: sheep.
Data set [2] concerns methane emissions. The settings on record: cows, compared with sheep.

For the compound `C=CCS[S+]([O-])CC=C` (centres unmarked) [Allicin], the “reduction of methane emissions” value is 20% with methane emissions [1] and “not as effective” in the data set on methane emissions [2].
